Test results: PMC7714071, “Interaction of amyloid beta with humanin and acetylcholinesterase is modulated by ATP” (FEBS Open Bio, 2020)

Experiments:
[1] = tested on: Aβ; conditions: physiological intracellular concentrations, enhanced by magnesium; cited from earlier work
Description: Soluble oligomers of proteins implicated in different diseases are primarily thought to be the main toxic form as opposed to the larger fibrillar assemblies. Aβ regions containing Tyr and Ser (H6DSGY10 and G25SNKG29) (Fig. 1) along with post‐translational modifications of these regions, have been implicated in misfolding, oligomerization, or fibril formation of Aβ [5, 10, 11, 16, 41]. […] In addition to ATP, the glycosaminoglycan, heparan sulfate (HS), has been previously reported to i ... || Access to the central domain of Aβ (residues 17–24) flanked by Lys‐16 and Lys‐28, known to be a critical structural element in fibrillar Aβ aggregates, might be regulated by binding of AChE and HN to their overlapping binding sites on Aβ. […] Moreover, we s ...

[2] = tested on: Aβ cytotoxicity; conditions: cited from earlier work
Description: Almost all types of cells produce amyloid beta (Aβ), a peptide well recognized for its role in the development and progression of different stages of Alzheimer's disease (AD). The Aβ peptide is ~ 4 kDa and derived from the sequential processing of the higher molecular weight amyloid precursor protein by two membrane‐bound endoproteases, β‐ and γ‐secretase. Different C‐terminal Aβ heterogeneity results from processing by γ‐secretase, where Aβ40 represents the most abundant isoform (~ 90%) as compared to Aβ42 (~ 10%). Self‐assembled Aβ40/42 peptides into amyloid fib ... || Soluble oligomers of proteins implicated in different diseases are primarily thought to be the main toxic form as opposed to the larger fibrillar assemblies. Aβ regions containing Tyr and Ser (H6DSGY10 and G25SNKG29) (Fig. 1) along with post‐translational modifications of these regions, have been implicated in misfolding, oligomerization, or fibril formation of Aβ [5, 10, 11, 16, 41]. […] Aβ proteins a ... || Acetylcholinesterase (AChE) is an enzyme known for its role in terminating acetylcholine‐mediated neurotransmission at the synaptic cleft. The majority of the cortical AChE in the Alzheimer's brain is mainly associated with the amyloid core of senile plaques. […]

[3] = tested on: Aβ40; conditions: versus Aβ42; cited from earlier work
Description: Almost all types of cells produce amyloid beta (Aβ), a peptide well recognized for its role in the development and progression of different stages of Alzheimer's disease (AD). The Aβ peptide is ~ 4 kDa and derived from the sequential processing of the higher molecular weight amyloid precursor protein by two membrane‐bound endoproteases, β‐ and γ‐secretase. Different C‐terminal Aβ heterogeneity results from processing by γ‐secretase, where Aβ40 represents the most abundant isoform (~ 90%) as compared to Aβ42 (~ 10%). Self‐assembled Aβ40/42 peptides into amyloid fib ... || Humanin (HN) is a secreted 21‐ to 24‐amino acid mitochondrial‐derived peptide. Certain amino acid residues in HN have been identified to be involved in different functions, including binding to Aβ [55, 56]. […] HN was identified previously as a binding partner of Aβ, likely modulating its aggregation pathways and counteracting its deleterious effects. […] The specific epitopes at the binding interface between HN and Aβ40 were identified, by proteolytic epitope excision and extraction in addition to affinity–mass spectrometric data analysis, to be HN (5–15) and Aβ (17–28). […] Inhibiting the 17–28 region of Aβ reduced aggregation of the neurotoxic amyloid fibrils and related cytotoxicity in SH‐SY5Y, a human neuroblastoma cell ... || (+ 1 further places)

[4] = ELISA, binding of biotinylated-Aβ to immobilised HS; design: species or system bovine; conditions: HS 100 nM on wells, increasing biotinylated-Aβ; single binding site model; mean ± SD of three independent experiments in triplicate; Fig. 2A
Experimental: ELISAs were carried out as we previously reported. Nunc MaxiSorp 96‐well flat bottom plate (Thermo Fisher) wells were coated with samples as indicated. The plates were incubated overnight at 4 °C on a shaker to allow binding of the samples to the plate wells. After the incubation, the wells were washed 4× with TBST, filled with 400 µL blocking buffer (110 mM KCl, 5 mM NaHCO3, 5 mM MgCl2, 1 mM EGTA, 0.1 mM CaCl2, 20 mM HEPES, 1% BSA, pH 7.4), and incubated with shaking overnight at 4 °C. The wells were then washed 4× with TBST, and 100 µL of sample at the desired concentration was added to each well and incubated with shaking overnight at 4 °C. TBST was then used to wash the wells 4× before proceeding in one of two ways: (a) biotinylated samples were analyzed by adding 100 µL streptavidin–HRP conjugate in TBST (1 : 2500 dilution) to the samples followed by incubation for 3 h at RT on a shaker, or (b) samples without biotin were analyzed by adding 100 µL TBST containing the primary antibody as per the manufacturer's recommendation, incubating for 3 h at RT on a shaker, followed by washing the wells 4× with TBST. […] The reaction was stopped with 100 µL 2 M H2SO4 after incubating at RT for 0.5–15 min, resulting in a yellow color change, measured by absorbance at 450 nm. […] Statistical analysis was determined by the […] […] Data were expressed as the mean ± SD. […]

[5] = tested on: Aβ42; conditions: in brains of AD patients; cited from earlier work
Description: Almost all types of cells produce amyloid beta (Aβ), a peptide well recognized for its role in the development and progression of different stages of Alzheimer's disease (AD). The Aβ peptide is ~ 4 kDa and derived from the sequential processing of the higher molecular weight amyloid precursor protein by two membrane‐bound endoproteases, β‐ and γ‐secretase. Different C‐terminal Aβ heterogeneity results from processing by γ‐secretase, where Aβ40 represents the most abundant isoform (~ 90%) as compared to Aβ42 (~ 10%). Self‐assembled Aβ40/42 peptides into amyloid fib ... || Amino acid residues involved in direct interactions between HN and Aβ40 were identified previously by molecular modeling. The specific epitopes at the binding interface between HN and Aβ40 were identified, by proteolytic epitope excision and extraction in addition to affinity–mass spectrometric data analysis, to be HN (5–15) and Aβ (17–28). […] Inhibiting the 17–28 region of Aβ reduced aggregation of the neurotoxic amyloid fibrils and related cytotoxicity in SH‐SY5Y, a human neuroblastoma cell ... || Acetylcholinesterase (AChE) is an enzyme known for its role in terminating acetylcholine‐mediated neurotransmission at the synaptic cleft. The majority of the cortical AChE in the Alzheimer's brain is mainly associated with the amyloid core of senile plaques. […]

[6] = tested on: Aβ in A549 cell-conditioned media; experiment: ELISA, oligomer versus total Aβ in A549 cell-conditioned media; type: cell-based, human; conditions: non-depleted A549 media; Fig. 8A
Experimental: (§1) Aβ ELISAs were carried out according to previous protocols for determining the oligomeric and monomeric concentrations of Aβ and as we recently reported. Briefly, total Aβ (monomers + oligomers) was measured by two‐site binding ELISAs using the capture 6E10 monoclonal antibody and 4G8‐conjugated biotin as the detection antibody, which recognizes a distinct epitope, then quantitated using streptavidin‐HRP.
(§2) Using the same samples, oligomerized Aβ was measured by a single‐site ELISA in which antibodies targeting the same primary sequence epitope were used for both capture (4G8) and detection (4G8‐biotin). Only oligomers are detected with this approach since the 4G8‐biotin antibody cannot bind to the captured monomer because the epitope is blocked by the 4G8 capture antibody. Therefore, only oligomeric or multimeric Aβ containing additional exposed 4G8 epitopes, not engaged by the capture antibody, are reported by the streptavidin–HRP. The amount of the monomer was then estimated as the difference between the concentration of total Aβ and the concentration of the oligomer.
(§3) Conditioned media were immunodepleted (ID) according to the methods previously described and our recently published report. Briefly, specific antibodies were bound to ELISA wells overnight (1 : 1000 dilution). The wells were then blocked and washed, then 300 μL of the conditioned medium (0.5 μg·μL^−1) treated as indicated, 72 h postserum starvation, was incubated with the antibodies bound to ELISA wells for 24 h. The ID media were then carefully removed and analyzed for the presence of the target protein or peptide by ELISA. The same amount of protein (3 µL of 600 µg·mL^−1 total protein) of each sample was analyzed in the experiments. Significant depletion (95–100%) was observed upon using each of the antibodies employed in this study.
(§4) Both epitopes recognized by the 6E10 and 4G8 antibodies have been previously shown to be exposed in Aβ aggregates. […] To determine the effect of ID of AChE or HN on this ratio in the absence or presence of added ATP, 0.2 × 10^5 cells per well were seeded in 96‐well plates in 10% FBS‐supplemented media. The next day, the cells were incubated in serum‐free medium for 72 h, then ID of AChE or HN as described in Materials and methods. The antibodies 6E10 or 4G8 were bound (1 : 1000 dilution) to ELISA wells (Fig. 8). The wells were blocked, and then incubated with 300 μL of the ID medium (0.5 μg·μL^−1). Biotin‐4G8 was then added and the signal processed as described in Materials and methods section. Fold change relative to controls using anti‐6E10 or anti‐4G8 antibodies incubated with 300 μL of the medium not incubated with cells was calculated.
(§5) Cells (0.2 × 10^5) were grown in 10% FBS‐supplemented media for 24 h. The cells were then incubated in serum‐free medium for 72 h without or with ATP and the media collected and ID from either HN or AChE as described in Materials and methods section. The antibodies 6E10 or 4G8 were bound (1 : 1000 dilution) to ELISA wells. The wells were blocked, and then incubated with 300 μL of the control and ID medium (0.5 μg·μL^−1). Biotin‐4G8 was then added and the signal processed as described in Materials and methods section. Fold change relative to controls using anti‐6E10 and anti‐4G8 antibodies and 300 μL of the medium not incubated with cells was calculated. Data were processed using the […] 8.4.3 software. The graphs summarize the results expressed as means ± SD of three separate experiments, each performed in triplicate. […]

[7] = tested on: Aβ in H1299 cell-conditioned media; experiment: ELISA, oligomer versus total Aβ in H1299 cell-conditioned media; type: cell-based, human; conditions: non-depleted H1299 media; Fig. 8B
Experimental: as §1, §2, §3, §4, §5

[8] = tested on: human lung adenocarcinoma xenografts; conditions: direct injection into xenografts; cited from earlier work
Description: A rapidly growing body of evidence has recently steadily emerged showing that AD patients might have a reduced risk and some protection against certain cancers. […] Experimental evi ...

[9] = tested on: Aβ; conditions: cited from earlier work

For `Nc1ncnc2c1ncn2[C@@H]1O[C@H](COP(=O)(O)OP(=O)(O)O)[C@@H](O)[C@H]1O` [ADP], the “effect on misfolding of Aβ” value [1] is listed as “reduced misfolding of Aβ”.

In the case of Aβ40, the “toxicity relative to Aβ42” value [2] is listed as “lower toxicity”, the “aggregation kinetics of Aβ40” value [3] is listed as “lower aggregation kinetics” and the “binding affinity of Aβ for HS” value [4] is listed as “comparable affinities”.

In the case of Aβ42, the “aggregation kinetics of Aβ42” value [5] is listed as “faster aggregation kinetics” and the “binding affinity of Aβ for HS” value [4] is listed as “comparable affinities”.

For amyloid beta [Aβ], the “oligomer relative to total Aβ” value [6] is listed as ~ 63%, the “oligomer relative to total Aβ” value [7] is listed as ~ 48% and the tumor growth [8] is listed as “suppress tumor growth in mice”.

For biotinylated‐HN, the “binding of biotinylated-HN to Aβ versus HN” value [9] is listed as “indistinguishable”.
